Results taken from ChEMBL document CHEMBL5506022, “Discovery of Novel Dual Inhibitors Targeting Mutant IDH1 and NAMPT for the Treatment of Glioma with IDH1Mutation” (J Med Chem, 2024).
Active and inactive are the calls of the source. The rule behind the calls is not given here.

What was measured:
[1] = tested on: U-87 MG; assay: cells; conditions: Homo sapiens, 48 h, read-out: Activity
[2] = tested on: U-87MG ATCC; assay: Effect on intracellular NADP+ level in human U-87 MG cells harboring wildtype IDH1; assay type: functional, cell-based
[3] = tested on: U-87 MG; assay: Synergistic antiproliferative activity against human U-87 MG cells harboring wildtype IDH1 assessed as inhibition of cell growth incubated for 48 hrs in presence of IDH305 by CCK8 assay; assay type: functional, cell-based, U-87MG ATCC
[4] = tested on: U-87 MG; assay type: functional, cell-based, U-87MG ATCC; conditions: Homo sapiens, 48 h
[5] = tested on: U-87 MG; assay: Antiproliferative activity against human U-87 MG cells harboring wildtype IDH1 assessed as inhibition of cell growth incubated for 24 hrs by CCK8 assay; assay type: functional, cell-based, U-87MG ATCC
[6] = tested on: U-87 MG; assay: Synergistic antiproliferative activity against human U-87 MG cells harboring wildtype IDH1 assessed as inhibition of cell growth incubated for 48 hrs in presence of AG-120 by CCK8 assay; assay type: functional, cell-based, U-87MG ATCC
[7] = tested on: U-87 MG; assay: Antiproliferative activity against human U-87 MG cells harboring wildtype IDH1 assessed as inhibition of cell growth incubated for 48 hrs by CCK8 assay; assay type: functional, cell-based, U-87MG ATCC
[8] = tested on: U-87 MG; assay type: functional, cell-based, U-87MG ATCC; conditions: Homo sapiens, 24 h
[9] = tested on: U-87 MG; assay type: functional, cell-based, U-87MG ATCC; conditions: Homo sapiens, 48 h; remark: listed apart in the source
[10] = tested on: U-87 MG; assay: cells; conditions: Homo sapiens, 48 h, read-out: Activity; remark: listed apart in the source
[11] = tested on: U-87 MG; assay type: functional, organism-based; conditions: Homo sapiens; U-87MG ATCC; dose 30.0 mg/kg, route ip, time 35.0 day
[12] = tested on: U-87MG ATCC; assay type: functional, cell-based; conditions: Homo sapiens, dose 0.5 µM, time 48.0 hrs
[13] = tested on: U-87 MG; assay type: functional, cell-based, U-87MG ATCC; conditions: Homo sapiens, 48 h; remark: listed apart in the source
[14] = tested on: U-87 MG; assay: Antiproliferative activity against human U-87 MG cells harboring wildtype IDH1 assessed as inhibition of cell growth incubated for 72 hrs by CCK8 assay; assay type: functional, cell-based, U-87MG ATCC
[15] = tested on: U-87 MG; assay type: functional, cell-based, U-87MG ATCC; conditions: Homo sapiens, 72 h
[16] = target: Nicotinamide phosphoribosyltransferase (Homo sapiens, UniProt P43490)
[17] = target: Isocitrate dehydrogenase [NADP] cytoplasmic (Homo sapiens, UniProt O75874); assay: Inhibition of wildtype IDH1 (unknown origin) using DL-isocitrate as substrate incubated for 60 mins in presence of NADP by fluorescence microplate reader
[18] = target: Isocitrate dehydrogenase [NADP] cytoplasmic (Homo sapiens, UniProt O75874, R132C); assay: Inhibition of recombinant IDH1 R132C mutant (unknown origin) using alpha-ketoglutarate as substrate incubated for 60 mins in presence of NADPH by fluorescence microplate reader
[19] = tested on: U-87 MG; assay type: functional, U-87MG ATCC; conditions: Homo sapiens, time 48 hrs, read-out: Activity
[20] = tested on: U-87 MG; assay type: functional, Homo sapiens, U-87MG ATCC; conditions: dose 1 µM; time 48 hrs
[21] = tested on: U-87 MG; assay type: functional, Homo sapiens, U-87MG ATCC; conditions: time 48 hrs
[22] = tested on: U-87 MG; assay: Synergistic antiproliferative activity against human U-87 MG cells harboring wildtype IDH1 assessed as combination index incubated for 48 hrs in presence of FK866 by CCK8 assay; assay type: functional, U-87MG ATCC
[23] = tested on: U-87 MG; assay type: functional, cell-based, U-87MG ATCC; conditions: Homo sapiens, 48 h; remark: listed apart in the source
[24] = tested on: U-87 MG; assay type: functional, Homo sapiens, U-87MG ATCC; conditions: dose 1 µM; time 48 hrs; remark: listed apart in the source
[25] = tested on: U-87 MG; assay type: functional, Homo sapiens, U-87MG ATCC; conditions: dose 1 µM; time 48 hrs; remark: listed apart in the source
[26] = tested on: U-87 MG; assay type: functional, Homo sapiens, U-87MG ATCC; conditions: time 48 hrs; remark: listed apart in the source
[27] = tested on: U-87 MG; assay: Synergistic antiproliferative activity against human U-87 MG cells harboring wildtype IDH1 assessed as inhibition of cell growth incubated for 48 hrs in presence of FK866 by CCK8 assay; assay type: functional, cell-based, U-87MG ATCC

Isocitrate dehydrogenase [NADP] cytoplasmic (Homo sapiens, UniProt O75874, R132C), sequence (O75874 2-414 R132C limits assumed): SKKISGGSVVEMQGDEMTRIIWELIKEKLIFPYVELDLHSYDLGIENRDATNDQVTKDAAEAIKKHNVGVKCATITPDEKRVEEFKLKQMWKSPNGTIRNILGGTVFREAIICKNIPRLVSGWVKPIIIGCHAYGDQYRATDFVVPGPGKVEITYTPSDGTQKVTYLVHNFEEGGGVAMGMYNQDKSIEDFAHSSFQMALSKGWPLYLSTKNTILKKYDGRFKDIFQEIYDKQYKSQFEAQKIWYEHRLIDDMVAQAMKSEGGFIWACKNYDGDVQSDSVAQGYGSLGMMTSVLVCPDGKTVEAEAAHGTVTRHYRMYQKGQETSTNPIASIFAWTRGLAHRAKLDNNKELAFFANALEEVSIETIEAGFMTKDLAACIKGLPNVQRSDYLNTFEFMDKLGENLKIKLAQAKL
Nicotinamide phosphoribosyltransferase, sequence (P43490 whole entry): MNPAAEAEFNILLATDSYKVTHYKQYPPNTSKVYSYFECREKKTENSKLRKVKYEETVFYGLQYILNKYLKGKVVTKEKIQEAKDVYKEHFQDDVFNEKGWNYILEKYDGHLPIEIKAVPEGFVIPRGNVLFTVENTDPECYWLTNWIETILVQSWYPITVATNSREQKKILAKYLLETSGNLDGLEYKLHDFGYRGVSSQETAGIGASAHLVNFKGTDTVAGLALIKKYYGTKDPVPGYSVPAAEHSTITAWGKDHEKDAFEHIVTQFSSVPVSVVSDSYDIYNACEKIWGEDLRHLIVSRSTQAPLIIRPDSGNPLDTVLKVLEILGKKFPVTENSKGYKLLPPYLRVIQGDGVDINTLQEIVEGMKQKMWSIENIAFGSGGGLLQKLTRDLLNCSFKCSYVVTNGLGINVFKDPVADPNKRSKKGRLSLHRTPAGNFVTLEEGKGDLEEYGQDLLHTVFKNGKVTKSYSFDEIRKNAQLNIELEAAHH
Isocitrate dehydrogenase [NADP] cytoplasmic (Homo sapiens, UniProt O75874), sequence (O75874 whole entry): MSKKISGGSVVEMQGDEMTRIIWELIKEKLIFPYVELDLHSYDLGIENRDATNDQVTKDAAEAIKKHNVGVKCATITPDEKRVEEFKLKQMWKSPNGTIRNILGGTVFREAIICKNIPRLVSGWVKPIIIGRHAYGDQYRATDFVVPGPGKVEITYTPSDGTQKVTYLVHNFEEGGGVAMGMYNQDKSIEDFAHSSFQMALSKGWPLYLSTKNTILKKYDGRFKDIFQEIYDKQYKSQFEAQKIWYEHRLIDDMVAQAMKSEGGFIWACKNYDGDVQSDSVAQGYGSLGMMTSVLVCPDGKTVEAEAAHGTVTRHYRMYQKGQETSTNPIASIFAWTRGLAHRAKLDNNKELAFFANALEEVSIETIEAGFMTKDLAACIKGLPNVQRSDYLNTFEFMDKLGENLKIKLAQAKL

SMILES | IC50 [16] | IC50 [17] | IC50 [18] | other results
O=C(/C=C/c1cccnc1)NCCCCC1CCN(C(=O)c2ccccc2)CC1 [DAPORINAD] |  |  |  | viability at 1 µM [1]: 27.8%; Activity [2]: inactive; IC50 [3]: 1690 nM; IC50 [4]: 970 nM; IC50 [5]: 5460 nM; IC50 [6]: 2510 nM; IC50 [7]: 2550 nM; IC50 [8]: 1040 nM; IC50 [9]: 450 nM; viability at 1 µM [10]: 40.8%; Activity [11]: Active; Activity [12]: inactive; IC50 [13]: 560 nM; IC50 [14]: 1630 nM; IC50 [15]: 410 nM
CC(C)[C@H]1COC(=O)N1c1ccnc(N[C@@H](C)c2ccc(-c3ccc(NC(=O)c4cccnc4)cc3)cc2)n1 | 109 nM | 36700 nM | 509 nM | 
C[C@H](Nc1nccc(N2C(=O)OC[C@@H]2Cc2ccccc2)n1)c1ccc(-c2ccc(NC(=O)COc3cccnc3)cc2)cc1 | 65.4 nM | 35900 nM | 294 nM | 
C[C@H](Nc1nccc(N2C(=O)OC[C@@H]2Cc2ccccc2)n1)c1ccc(-c2ccc(NC(=O)c3ccc4nccn4c3)cc2)cc1 | 58.1 nM | 9740 nM | 77.4 nM | 
CC(C)[C@H]1COC(=O)N1c1ccnc(N[C@@H](C)c2ccc(-c3ccc(NC(=O)COc4cccnc4)cc3)cc2)n1 | 33.1 nM | 8520 nM | 114 nM | IC50 [4]: 1180 nM; IC50 [5]: 1020 nM; IC50 [7]: 890 nM; IC50 [8]: 1660 nM; IC50 [14]: 540 nM; IC50 [15]: 570 nM
C[C@H](Nc1nccc(N2C(=O)OC[C@@H]2[C@@H](C)O)n1)c1ccc(-c2ccc(NC(=O)/C=C/c3cccnc3)cc2)cc1 | 32.6 nM | 6460 nM | 57 nM | 
C[C@H](Nc1nccc(N2C(=O)OC[C@@H]2[C@H](C)F)n1)c1ccc(-c2ccc(NC(=O)/C=C/c3cccnc3)cc2)cc1 | 24.4 nM | 6850 nM | 59.3 nM | 
CC(C)[C@H]1COC(=O)N1c1ccnc(N[C@@H](C)c2ccc(NC(=O)CCCCNC(=O)/C=C/c3cccnc3)cc2)n1 | 25.5 nM | 6180 nM | 405 nM | 
C[C@H](Nc1nccc(N2C(=O)OC[C@@H]2[C@H](C)F)n1)c1ccc(-c2ccc(NC(=O)/C=C/c3cccnc3)cc2)cn1 | 53.2 nM | 14000 nM | 342 nM | 
CC(C)[C@H]1COC(=O)N1c1ccnc(N[C@@H](C)c2ccc(-c3ccc(NC(=O)c4cnccn4)cc3)cc2)n1 | 241 nM | 19700 nM | 579 nM | 
C[C@H](Nc1nccc(N2C(=O)OC[C@@H]2[C@@H](C)OC(C)(C)C)n1)c1ccc(-c2ccc(NC(=O)/C=C/c3cccnc3)cc2)cc1 | 42.5 nM | 14700 nM | 78.7 nM | 
C[C@H](Nc1nccc(N2C(=O)OC[C@@H]2[C@@H](C)OC(C)(C)C)n1)c1ccc(-c2ccc(NC(=O)COc3cccnc3)cc2)cc1 | 51.4 nM | 33900 nM | 252 nM | 
CC(C)[C@H]1COC(=O)N1c1ccnc(N[C@@H](C)c2ccc(-c3ccc(NC(=O)c4cc5cnccc5[nH]4)cc3)cc2)n1 | 127 nM | 9160 nM | 171 nM | 
CC(C)[C@H]1COC(=O)N1c1ccnc(N[C@@H](C)c2ccc(-c3ccc(NC(=O)c4ccc5nccn5c4)cc3)cc2)n1 | 193 nM | 9160 nM | 73.2 nM | IC50 [4]: 3260 nM; IC50 [5]: 2660 nM; IC50 [7]: 1210 nM; IC50 [8]: 3110 nM; IC50 [14]: 3260 nM; IC50 [15]: 1460 nM
CC(C)[C@H]1COC(=O)N1c1ccnc(N[C@@H](C)c2ccc(NC(=O)CNC(=O)/C=C/c3cccnc3)cc2)n1 | 15.1 nM | 4430 nM | 362 nM | 
C[C@H](Nc1nccc(N2C(=O)OC[C@@H]2Cc2ccccc2)n1)c1ccc(-c2ccc(NC(=O)/C=C/c3cccnc3)cc2)cc1 | 38 nM | 32800 nM | 130 nM | 

SMILES | IC50 [16] | IC50 [17] | IC50 [18] | other results
CC(C)[C@H]1COC(=O)N1c1ccnc(N[C@@H](C)c2ccc(NC(=O)C3CCN(C(=O)/C=C/c4cccnc4)CC3)cc2)n1 | 81.2 nM | 11100 nM | 308 nM | 
C[C@H](Nc1nccc(N2C(=O)OC[C@@H]2[C@H](C)F)n1)c1ccc(-c2ccc(NC(=O)c3ccc4nccn4c3)cc2)cc1 | 39.8 nM | 7330 nM | 231 nM | 
C[C@H](Nc1nccc(N2C(=O)OC[C@@H]2[C@H](C)F)n1)c1ccc(-c2ccc(NC(=O)c3ccc4nccn4c3)cc2)cn1 | 24.3 nM | 26100 nM | 369 nM | 
CC(C)[C@H]1COC(=O)N1c1ccnc(N[C@@H](C)c2ccc(NC(=O)CCCNC(=O)/C=C/c3cccnc3)cc2)n1 | 45.7 nM | 9400 nM | 355 nM | 
C[C@H](Nc1nccc(N2C(=O)OC[C@@H]2[C@H](C)F)n1)c1ccc(-c2ccc(NC(=O)COc3cccnc3)cc2)cn1 | 32.2 nM | 21100 nM | 419 nM | 
N#Cc1ccnc(N2C(=O)CC[C@H]2C(=O)N(c2cncc(F)c2)[C@H](C(=O)NC2CC(F)(F)C2)c2ccccc2Cl)c1 [IVOSIDENIB] |  |  |  | viability at 1 µM [19]: 27.8%; IC50 [4]: 1020 nM; IC50 [5]: 100000 nM; Activity [20]: 49.6%; CI [21]: 0.88; CI [22]: 0.78; IC50 [7]: 89300 nM; IC50 [8]: 3060 nM; viability at 1 µM [10]: 37.8%; IC50 [23]: 560 nM; Activity [24]: 4.59%; Activity [25]: 18%; CI [26]: 0.88; IC50 [14]: 67200 nM; IC50 [27]: 2510 nM; IC50 [15]: 980 nM
CC(C)[C@H]1COC(=O)N1c1ccnc(N[C@@H](C)c2ccc(NC(=O)CCNC(=O)/C=C/c3cccnc3)cc2)n1 | 22.4 nM | 3240 nM | 284 nM | 
CC(C)[C@H]1COC(=O)N1c1ccnc(N[C@@H](C)c2ccc(-c3ccc(NC(=O)NCc4cccnc4)cc3)cc2)n1 | 374 nM | 27000 nM | 1020 nM | 
CC(C)[C@H]1COC(=O)N1c1ccnc(N[C@@H](C)c2ccc(-c3ccc(NC(=O)c4cnc5[nH]ccc5c4)cc3)cc2)n1 | 162 nM | 6440 nM | 17.7 nM | 
C[C@H](Nc1nccc(N2C(=O)OC[C@@H]2[C@@H](C)OC(C)(C)C)n1)c1ccc(-c2ccc(NC(=O)c3ccc4nccn4c3)cc2)cc1 | 12.6 nM | 5790 nM | 57 nM | 
C[C@H](Nc1nccc(N2C(=O)OC[C@@H]2[C@@H](C)O)n1)c1ccc(-c2ccc(NC(=O)COc3cccnc3)cc2)cc1 | 42.2 nM | 6940 nM | 138 nM | 
CC(C)[C@H]1COC(=O)N1c1ccnc(N[C@@H](C)c2ccc(NC(=O)C3CCN(C(=O)/C=C/c4cccnc4)C3)cc2)n1 (stereo not given in full) | 54.1 nM | 3710 nM | 430 nM | 
C[C@H](Nc1nccc(N2C(=O)OC[C@@H]2[C@@H](C)O)n1)c1ccc(-c2ccc(NC(=O)c3ccc4nccn4c3)cc2)cc1 | 24.8 nM | 15700 nM | 102 nM | 
CC(C)[C@H]1COC(=O)N1c1ccnc(N[C@@H](C)c2ccc(-c3ccc(NC(=O)c4cc5ncccc5o4)cc3)cc2)n1 | 279 nM | 5720 nM | 232 nM | 
C[C@H](Nc1nccc(N2C(=O)OC[C@@H]2c2ccccc2)n1)c1ccc(-c2ccc(NC(=O)/C=C/c3cccnc3)cc2)cc1 | 221 nM | 36500 nM | 147 nM | 
